Values joined by “and” are separate entries in the source; they are usually repeats but may differ in a detail not shown here. Equal entries are not always repeated.
Assays:
[1] = molecular target: T1, Sodium/hydrogen exchanger 1 (Homo sapiens, UniProt P19634)
Carbonic anhydrase 2 [2] = molecular target: T2, Carbonic anhydrase 2 (Homo sapiens, UniProt P00918)
[3] = molecular target: T3, Monocarboxylate transporter 1 (Rattus norvegicus, UniProt P53987)
T3 sequence (P53987 whole entry): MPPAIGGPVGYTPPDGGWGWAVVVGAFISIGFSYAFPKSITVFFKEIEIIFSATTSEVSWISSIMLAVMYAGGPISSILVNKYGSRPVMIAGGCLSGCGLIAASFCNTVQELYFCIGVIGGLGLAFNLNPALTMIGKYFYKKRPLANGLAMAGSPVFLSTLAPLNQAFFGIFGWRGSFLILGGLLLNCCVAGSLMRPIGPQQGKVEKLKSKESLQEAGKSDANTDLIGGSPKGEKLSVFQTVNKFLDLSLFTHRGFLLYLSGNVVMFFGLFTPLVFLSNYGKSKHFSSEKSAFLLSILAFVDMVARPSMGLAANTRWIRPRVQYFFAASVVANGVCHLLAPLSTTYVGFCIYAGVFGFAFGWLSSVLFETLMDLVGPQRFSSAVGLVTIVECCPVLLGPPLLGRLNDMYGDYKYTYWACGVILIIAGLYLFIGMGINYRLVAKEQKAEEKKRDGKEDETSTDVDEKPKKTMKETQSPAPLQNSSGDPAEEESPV

Carbonic anhydrase 2 [4] = molecular target: T2, Carbonic anhydrase 2; remark: listed apart in the source
Carbonic anhydrase 2 [5] = molecular target: T2, Carbonic anhydrase 2; remark: listed apart in the source
Carbonic anhydrase 9 [6] = molecular target: T4, Carbonic anhydrase 9 (Homo sapiens, UniProt Q16790)
MCF7 [7] = assay: cells; details: Homo sapiens, MCF7, 96 h
Carbonic anhydrase 9 [8] = molecular target: T4, Carbonic anhydrase 9; remark: listed apart in the source
[9] = molecular target: T1, Sodium/hydrogen exchanger 1; type: cell-based, Platelet
Raji = assay: cells; details: Homo sapiens, 96 h
MCF7 [10] = assay: cells; details: Homo sapiens
HepG2 = assay: cells; details: Homo sapiens
A549 = assay: cells; details: Homo sapiens
Carbonic anhydrase 9 [11] = molecular target: T4, Carbonic anhydrase 9; remark: listed apart in the source
[12] = molecular target: T1, Sodium/hydrogen exchanger 1; remark: listed apart in the source
[13] = molecular target: T5, Monocarboxylate transporter 4 (Homo sapiens, UniProt O15427)
T5 sequence (O15427 whole entry): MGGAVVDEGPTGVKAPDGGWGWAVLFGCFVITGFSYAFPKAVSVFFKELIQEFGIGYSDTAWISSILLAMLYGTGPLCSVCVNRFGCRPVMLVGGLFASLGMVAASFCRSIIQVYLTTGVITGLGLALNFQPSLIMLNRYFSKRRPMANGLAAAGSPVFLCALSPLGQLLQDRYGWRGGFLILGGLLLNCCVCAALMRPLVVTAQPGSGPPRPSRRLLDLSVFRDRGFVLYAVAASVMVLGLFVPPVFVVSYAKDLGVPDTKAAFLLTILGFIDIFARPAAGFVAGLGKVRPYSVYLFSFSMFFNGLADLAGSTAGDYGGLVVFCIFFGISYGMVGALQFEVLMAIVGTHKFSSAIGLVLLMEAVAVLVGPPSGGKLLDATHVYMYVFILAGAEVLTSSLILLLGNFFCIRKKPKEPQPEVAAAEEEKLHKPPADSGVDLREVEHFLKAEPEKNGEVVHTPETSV

[14] = molecular target: T6, Monocarboxylate transporter 1 (Homo sapiens, UniProt P53985)
T6 sequence (P53985 whole entry): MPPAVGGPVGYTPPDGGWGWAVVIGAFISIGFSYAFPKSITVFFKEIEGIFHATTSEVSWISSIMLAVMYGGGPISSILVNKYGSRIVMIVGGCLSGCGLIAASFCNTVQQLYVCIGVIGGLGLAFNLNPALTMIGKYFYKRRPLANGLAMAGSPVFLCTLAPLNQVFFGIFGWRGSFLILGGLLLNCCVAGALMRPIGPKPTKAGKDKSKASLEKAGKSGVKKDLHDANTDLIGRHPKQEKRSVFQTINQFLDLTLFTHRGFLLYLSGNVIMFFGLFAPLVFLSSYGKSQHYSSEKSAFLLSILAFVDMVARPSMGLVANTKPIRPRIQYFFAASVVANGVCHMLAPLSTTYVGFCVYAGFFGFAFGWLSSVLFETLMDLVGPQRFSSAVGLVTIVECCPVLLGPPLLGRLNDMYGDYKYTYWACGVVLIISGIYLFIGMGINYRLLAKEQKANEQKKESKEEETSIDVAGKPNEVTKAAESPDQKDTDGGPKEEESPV

[15] = molecular target: T6, Monocarboxylate transporter 1; remark: listed apart in the source

T1 sequence (P19634 whole entry): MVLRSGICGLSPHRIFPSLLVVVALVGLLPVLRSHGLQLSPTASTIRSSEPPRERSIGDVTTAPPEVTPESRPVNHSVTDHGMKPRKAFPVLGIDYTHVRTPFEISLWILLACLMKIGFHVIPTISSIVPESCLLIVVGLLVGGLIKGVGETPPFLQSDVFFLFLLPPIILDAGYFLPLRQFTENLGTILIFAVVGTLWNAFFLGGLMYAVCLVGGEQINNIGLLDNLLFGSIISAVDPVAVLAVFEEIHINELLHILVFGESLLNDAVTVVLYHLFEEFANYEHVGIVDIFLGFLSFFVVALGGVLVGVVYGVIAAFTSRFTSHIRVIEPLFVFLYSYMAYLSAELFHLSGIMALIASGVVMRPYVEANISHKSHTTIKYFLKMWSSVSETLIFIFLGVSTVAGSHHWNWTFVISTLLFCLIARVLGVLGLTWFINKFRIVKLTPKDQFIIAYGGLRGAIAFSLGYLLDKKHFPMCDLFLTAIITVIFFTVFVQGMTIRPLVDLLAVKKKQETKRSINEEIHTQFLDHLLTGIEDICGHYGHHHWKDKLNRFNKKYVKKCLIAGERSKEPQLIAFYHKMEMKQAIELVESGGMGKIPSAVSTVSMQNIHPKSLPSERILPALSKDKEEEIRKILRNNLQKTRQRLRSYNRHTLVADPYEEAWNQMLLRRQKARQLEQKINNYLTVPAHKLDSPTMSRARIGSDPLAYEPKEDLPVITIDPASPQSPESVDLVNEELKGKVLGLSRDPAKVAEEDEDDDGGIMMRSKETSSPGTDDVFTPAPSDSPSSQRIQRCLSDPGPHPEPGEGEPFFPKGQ

SMILES: N=C(N)NC(=O)[C@H]1C[C@@H]1c1ccccc1
- IC50 [1]: 0.5 µM

SMILES: N#Cc1cc2ccc(O)cc2oc1=O
- Ki (Carbonic anhydrase 2 [2]): > 200 µM

SMILES: COc1ccc(CN2CCN(CCOc3ccc(C(=O)N=C(N)N)cc3[N+](=O)[O-])CC2)c(OC)c1OC
- IC50 [1]: 0.104 µM

SMILES: COc1ccc(CN2CCN(CCOc3ccc(C(=O)NC(=N)N)cc3NC(=O)c3sccc3C)CC2)c(OC)c1OC
- IC50 [1]: 0.068 µM

SMILES: CCN(CC)c1ccc(/C=C(\C#N)C(=O)O)cc1
- IC50 [3]: 0.066 µM

SMILES: CC(C(=O)NCCOc1ccc2oc(=O)ccc2c1)c1ccc(-c2ccccc2)c(F)c1 (stereo not given)
- Ki (Carbonic anhydrase 2 [4]): > 10 µM

SMILES: N#C/C(=C\c1c[nH]c2ccccc12)C(=O)O
- IC50 [3]: > 1 µM

SMILES: COc1ccc(CSc2nnc(COc3ccc4c(C)cc(=O)oc4c3)o2)cc1
- Ki (Carbonic anhydrase 2 [2]): > 10 µM

SMILES: NS(=O)(=O)c1ccc(NCC(=O)N/N=C2\C(=O)N(Cc3ccccc3)c3ccccc32)cc1
- Ki (Carbonic anhydrase 2 [5]): 0.204 µM

SMILES: C=C(C)[C@@H]1CC[C@]2(COS(N)(=O)=O)CC[C@]3(C)[C@H](CC[C@@H]4[C@@]5(C)CC[C@H](OC(=O)NCC)C(C)(C)[C@@H]5CC[C@]43C)[C@@H]12
- Ki (Carbonic anhydrase 9 [6]): 0.00446 µM
- IC50 (MCF7 [7]): 10.5 µM

SMILES: CCCCCOc1ccc(C(=O)CN2CCN(Cc3ccc(OC)c(OC)c3OC)CC2)cc1C(=O)N=C(N)N
- IC50 [1]: 0.108 µM

SMILES: Cc1cccc(N2C(=O)CSC2c2cn(-c3ccccc3)nc2-c2cc3ccccc3oc2=O)c1 (stereo not given)
- Ki (Carbonic anhydrase 2 [4]): > 10 µM
- Ki (Carbonic anhydrase 9 [8]): 0.0615 µM

SMILES: NC(N)=NC(=O)c1cc2cccc3c2n1C(=O)CCCC3
- IC50 [1]: 0.006 µM

SMILES: CC(C)(C)[Si](CCOc1ccc(/C=C(\C#N)C(=O)O)cc1)(c1ccccc1)c1ccccc1
- IC50 [3]: 0.097 µM

SMILES: C=C(C)[C@@H]1CC[C@]2(COS(N)(=O)=O)CC[C@]3(C)[C@H](CC[C@@H]4[C@@]5(C)CC[C@H](OS(N)(=O)=O)C(C)(C)[C@@H]5CC[C@]43C)[C@@H]12
- IC50 (MCF7 [7]): 10.5 µM

SMILES: N#C/C(=C\c1cn(-c2ccccc2C(=O)O)c2ccccc12)C(=O)O
- IC50 [3]: > 1 µM

SMILES: Cc1nc2c(cc1C(=O)N=C(N)N)CCCCC2
- IC50 [1]: 0.017 µM

SMILES: NC(N)=NC(=O)c1cc(Cl)c(N)nc1N
- IC50 [9]: 1.3 µM

SMILES: CC(C)N1C(=O)C(C)(C)Oc2cc(C(=O)N=C(N)N)ccc21
- IC50 [1]: 0.2 µM

SMILES: O=C(Oc1ccc2c(-c3ccccc3)cc(=O)oc2c1)c1ccccc1
- Ki (Carbonic anhydrase 2 [2]): > 10 µM

SMILES: CC(C)c1cc(=O)c2c(OCCCO)cc(OCc3cccc4ccccc34)cc2o1
- EC50 (Raji): ≤ 0.1 µM

SMILES: Cn1c(=O)n(Cc2nnc(N)[nH]2)c(=O)c2ccccc21
- IC50 [1]: 5.8 µM

SMILES: Cc1c[nH]c(=O)n(CC(=O)N=C(N)N)c1=O
- IC50 [1]: 0.155 µM

SMILES: Nc1nn(C(=O)C23CC4CC(CC(C4)C2)C3)c(N)c1/N=N/c1ccccc1
- Ki (Carbonic anhydrase 2 [4]): 0.0857 µM
- IC50 (MCF7 [10]): 4.68 µM
- IC50 (HepG2): 2.7 µM
- IC50 (A549): 1.55 µM

SMILES: Cc1cccc2c1cc(C(=O)N=C(N)N)n2C
- IC50 [1]: 0.1 µM

SMILES: CC(=O)Nc1cc([N+](=O)[O-])c(Cl)cc1C(=O)N=C(N)N
- IC50 [9]: 3.6 µM

SMILES: O=C(CN1C(=O)CSC1=O)c1cc2ccccc2oc1=O
- Ki (Carbonic anhydrase 2 [2]): > 100 µM

SMILES: Cc1cc(=O)oc2cc(OCCCCCNc3nc4cc(-c5ccccc5)ccc4o3)ccc12
- Ki (Carbonic anhydrase 2 [2]): > 10 µM
- Ki (Carbonic anhydrase 9 [11]): 0.0322 µM

SMILES: Cn1c(C(=O)N=C(N)N)cc2ccccc21
- IC50 [1]: 1 µM

SMILES: CC(=O)C(C)/C(C)=N/NC(=O)C12CC3CC(CC(C3)C1)C2 (stereo not given)
- Ki (Carbonic anhydrase 2 [4]): 0.256 µM
- IC50 (MCF7 [10]): 8.35 µM
- IC50 (HepG2): 7.82 µM
- IC50 (A549): 4.39 µM

SMILES: CC(C)c1cc(=O)c2c(OCc3ccccc3CO)cc(OCc3ncccc3C(F)(F)F)cc2o1
- EC50 (Raji): ≤ 0.1 µM

SMILES: O=c1ccc2cc(-n3cc(CNc4ccc(Br)cc4)nn3)ccc2o1
- Ki (Carbonic anhydrase 2 [2]): > 50 µM

SMILES: NC(N)=NC(=O)c1nc(Cl)c(N)cc1N
- IC50 [9]: 2.3 µM

SMILES: Cc1nc(-c2cc3ccccc3oc2=O)ccc1C(=O)/C=C/c1ccccc1
- Ki (Carbonic anhydrase 2 [2]): > 100 µM

SMILES: CC(C)N1C(=O)C(C)(C)Oc2ccc(C(=O)N=C(N)N)cc21
- IC50 [1]: 0.12 µM

SMILES: NC(N)=NC(=O)c1cc(Cl)c(N)cc1N
- IC50 [9]: 16 µM

SMILES: Cc1nc(C(=O)N=C(N)N)c(N)nc1N1CCCOCC1
- IC50 [12]: 0.085 µM

SMILES: NC(N)=NC(=O)c1ccc2c(Br)cccc2c1
- IC50 [1]: 0.01 µM

SMILES: COc1ccc(CN2CCN(Cc3ccc(C(=O)N=C(N)N)cc3NC(=O)c3ccc(C(F)(F)F)cc3)CC2)c(OC)c1OC
- IC50 [1]: 3.53 µM

SMILES: C=CCN1CCN(Cc2c(O)ccc3c(C)cc(=O)oc23)CC1
- Ki (Carbonic anhydrase 2 [4]): > 10 µM

SMILES: NS(=O)(=O)c1ccc(CN/C=C/C(=O)/C=C/c2cc3ccccc3oc2=O)cc1
- Ki (Carbonic anhydrase 2 [4]): 0.044 µM
- Ki (Carbonic anhydrase 9 [8]): 0.0089 µM

SMILES: CC(=O)c1ccc(-c2cc3ccccc3oc2=O)nc1C
- Ki (Carbonic anhydrase 2 [2]): > 100 µM
- Ki (Carbonic anhydrase 9 [11]): 0.625 µM

SMILES: CC(C)c1cc(=O)c2c(OCc3ccccc3CO)cc(OCc3ccnc4ccccc34)cc2o1
- EC50 (Raji): ≤ 0.1 µM

SMILES: Cc1ccc(-c2cc(C)c(C(=O)N=C(N)N)cc2S(C)(=O)=O)cc1
- IC50 [9]: 0.025 µM

SMILES: CS(=O)(=O)c1cc(C(=O)N=C(N)N)ccc1N1CCCCC1
- IC50 [9]: 0.1 µM and 0.8 µM

SMILES: Cc1cc(C(C)C)c(S(C)(=O)=O)cc1C(=O)N=C(N)N
- IC50 [9]: 0.002 µM

SMILES: CCN(c1nc(N)c(C(=O)NC(=N)N)nc1Cl)C(C)C [5-(N-ETHYL-N-ISOPROPYL)AMILORIDE]
- IC50 [9]: 0.5 µM

SMILES: CC(C)CN(C)c1nc(N)c(C(=O)N=C(N)N)nc1Cl [5-(N-METHYL-N-ISOBUTYL)AMILORIDE]
- IC50 [12]: 0.174 µM

SMILES: CC(C)c1c(C(=O)Nc2ccccc2)c(-c2ccccc2)c(-c2ccc(F)cc2)n1CC[C@@H](O)C[C@@H](O)CC(=O)O [ATORVASTATIN CALCIUM]
- IC50 [13]: ~138 µM
- IC50 [14]: > 210 µM

SMILES: CC(C)c1ccc(C(=O)NC(=N)N)cc1S(C)(=O)=O [CARIPORIDE]
- IC50 [9]: 0.8 µM and 0.2 µM

SMILES: Cc1cc(-n2cccc2)c(S(C)(=O)=O)cc1C(=O)NC(=N)N [ENIPORIDE]
- IC50 [9]: 0.08 µM

SMILES: CCOC(=O)N1CCC(=C2c3ccc(Cl)cc3CCc3cccnc32)CC1 [LORATADINE]
- IC50 [13]: > 300 µM
- IC50 [14]: ~100 µM

SMILES: O=c1cc(-c2ccc(O)c(O)c2)oc2cc(O)cc(O)c12 [LUTEOLIN]
- IC50 [15]: 0.41 µM

SMILES: O=c1c(O)c(-c2ccc(O)cc2O)oc2cc(O)cc(O)c12 [MORIN]
- IC50 [15]: 6.21 µM

SMILES: N=C(N)NC(=O)c1nc(Cl)c(N2CCCCCC2)nc1N [N,N-HEXAMETHYLENEAMILORIDE]
- IC50 [9]: 3.3 µM

SMILES: O=C(CCc1ccc(O)cc1)c1c(O)cc(O)cc1O [PHLORETIN]
- IC50 [15]: 2.57 µM

SMILES: Cc1cc(S(C)(=O)=O)c(S(C)(=O)=O)cc1C(=O)NC(=N)N [RIMEPORIDE]
- IC50 [9]: 0.113 µM
